# Data reported in patent publication US5919464A, “Treatment of aberrant cellular states with biomodulators” (University of New Mexico, priority 1993, dated 1999).
# “Also recorded” adds a separate entry of the source.
# What was measured:
# canine glioma (CG) cells = test: NMR T-2* linewidth of canine glioma cells; assay type: cell-based
# Excerpt: These measurements correlate with the status of the cell surface oligosaccharide display. When the GFE decreases, as in cellular senescence, the linewidth measurements decrease, indicating an increased frequency of motion of unfrozen water on the surface. […] Additional data which supports this phenomenological connection between linewidth changes and the functional surface organization include; t-butanol extraction results in uniform decreases in the linewidth; biomodulator treatment of PDL-35 IMR-90s prevents the linewidth changes observed with the senescent populations; and the correlation between the cell surface organization changes and the linewidth data. […] The cells used for all these experiments are between passage 30 and passage 75.
# In the growth transformed population we use the term unregulated to distinguish the models. In this case the linewidth for the CG controls are much higher than the IMR-90 values and the re-regulation results in a lowering of these values, approaching the data for the IMR-90s.
# The cell surface oligosaccharide display was assessed by methods developed previously. In brief, cells from a sub-culturing were aliquotted into 96 well trays at 5×10^5 cells per ml, 100 μL aliquots. After 16 hours of culture the cells were washed, fixed, and blocked with 0.1% BSA/PBS. Optimal lectin concentrations (5 μg/ml)were used to give 80 to 90% saturation of the available sites. Three carbohydrate ligands at 10 μg concentrations in triplicate or quadruplicate were then used to prepare competition curves for the lectin binding. The Bound over Free (B/F) ratio was calculated and the Ligand microprocessor program was used to determine the optimal fit of the data to a polynomial generated model. The Gibb's Free Energy (GFE) was calculated from the Scatchard data on the competition assay by the following equation: GFE=-RT ln Kequil. The proton NMR linewidth measurements were conducted as described previously.
# B16 melanoma cells = test: effect of swainsonine on B16 melanoma solid tumor growth; assay type: in vivo, C57Bl/6 mice; conditions: for inhibition of B16 growth at other doses: 1.0, 0.01 and 0.001 μg Sw
# Procedure: The B16 melanoma cells were purchased from American Type Culture Collection (ATCC). They were maintained in complete α-MEM (SIGMA) (with 10% fetal calf serum (FCS) (Sigma), 100 U/ml penicillin (Sigma), 100 μg/ml streptomycin (Sigma) and 2 mM glutamine (Sigma)) in Corning 75 cm^2 straight necked flasks (T75) and grown with 5.5% CO2 in air with 95% humidity in a New Brunswick Scientific water jacketed incubator. […] They were harvested using 1× Trypsin-EDTA (Sigma), centrifuged at 100×g with a Beckman TJ6 centrifuge, counted using a hemocytometer and stained with trypan blue to determine viability. The cells used for injection into the mice were washed three times in phosphate buffered saline (PBS), counted and resuspended in PBS at a final concentration of 6×10^6 cells per ml.
# The swainsonine, purchased from Boehringer Mannheim, was initially suspended in PBS at 100 μg/ml. Subsequent dilutions utilized in the following experiments were made in PBS.
# Fifteen female C57Bl/6 mice (6 weeks old, from Harlan Sprague Dawley Laboratories) were treated 3 times per week on a Monday-Wednesday-Friday (MWF) schedule for three weeks prior to the injection of the 6×10^5 B16 melanoma cells. The treatment consisted of 0.1 ml (total volume) intraperitoneal injections of swainsonine in the mornings before 9:00 am. The treatment groups were as follows:
# The MWF treatment with the swainsonine continued after the tumor cell injection until the termination of the study. Once the tumor was palpable, electronic calipers were used to measure the length (l), width (w) and depth (d) of the tumor. The volume of the tumor was then determined by V=πr^2 ×d, with the assumption that the tumor is a […], then r=(l+w)/4.
# splenocytes = test: effect of swainsonine on humoral immunity (PFC assay); assay type: in vivo, mouse
# Procedure: The plaque forming cell (PFC) assay was done according to the method developed by Jerne and Nordin (1963). The splenocytes were washed in serum-free RPMI-1640 and brought to a final concentration of 1×10^6 cell/100 μl. Sheep red blood cells (sRBC), from The Colorado Serum Company, were labelled with protein A from Staphylococcus aureus (Sigma). The sRBC's were washed 3 times with saline (0.85% NaCl), the packed cells were then incubated with 1 ml of protein A (0.5 mg/ml saline) and 10 ml of saline containing 0.1 μl of CrCl3 (35% solution) (Aldrich), for 20 minutes. The sRBC's were then washed 3 times with PBS and suspended in PBS to make a 30% solution. The sRBC's (50 μl) and splenocytes (100μl) were combined with SeaPlaque agarose (FMC Corporation) and smeared on a 75 mm×50 mm microscope slide to form a lawn of target red blood cells with uniformly dispersed effector cells. Each sample was done in triplicate. The agarose was allowed to harden and the slides were placed in trays containing serum-free RPMI-1640. The trays were incubated at 37° C. in a CO2 incubator for 90 min. After incubation the slides were placed in slide holders containing normal saline for a wash step. The rabbit/anti-mouse antibody (DAKO Corporation) was diluted 1:400 with serum free RPMI-1640 and added to the slide trays. Following another 90 min. incubation at 37° C. in a CO2 incubator, the slides were again washed. Fresh frozen guinea pig complement (GIBCO) (2%) in serum-free RPMI-1640 was added to the slide trays and incubated for another 60 to 90 min. depending on the time necessary for plaque formation. The number of plaques were counted and the results reported as number of plaque forming cells per 1×10^6 splenocytes.
# Mice were pretreated for 3 weeks with Sw (0.1 μg and 0.01 μg), and then received B16 cells. At 3 time points post tumor cell injection (day 0, 7 and 14), the mice were sacrificed and the spleens were removed. The cells were then used to determine the effect of Sw on humoral immunity. […] The presence of a day 7 tumor caused a return to baseline for all the groups. […]
# antibody formation = conditions: in words, cited from earlier work
# B16F10 cells = conditions: Sw in drinking water (3 μg/ml) for 24 hours; cited from earlier work
# IL-2R; LAK = conditions: in words, cited from earlier work
# α-mannosidase II = conditions: in words; cited from earlier work
smiles,measurement,setting,value
"O[C@H]1[C@H]2[C@H](O)CCCN2C[C@H]1O [Swainsonine, swainsonine]",T-2* linewidth,"canine glioma (CG) cells; 233 K, four weeks of treatment, mean ± SD",300 ± 8
same,linewidth change versus controls,"canine glioma (CG) cells; after one treatment / one week, in words, listed as Sw",significant (P>0.01]) decreases in linewidth; also recorded: significantly (P>0.01) different from those of the untreated controls
same,linewidth after treatment withdrawal versus control,"canine glioma (CG) cells; four weeks treatment, one week withdrawal, in words",still significantly different from control values
same,delay of tumor growth onset,B16 melanoma cells; 0.1 μg Sw,two
same,reduction of tumor size compared to controls,"B16 melanoma cells; 0.1 μg Sw, day 9, p=0.03",74%
same,reduction of tumor size compared to controls,"B16 melanoma cells; 0.1 μg Sw, day 11, p=0.003",68%
same,day of palpable tumors,"B16 melanoma cells; 0.1 μg Sw, control day 5",7 days
same,day of measurable tumors,"B16 melanoma cells; 0.1 μg Sw, control day 7",9 days
same,tumor growth at 1.0 μg,"B16 melanoma cells; 1.0 μg Sw, in words",enhanced growth
same,inhibition of B16 growth at other doses,B16 melanoma cells; in words,no effect on delaying growth
same,inhibition of B16 growth at other doses,"B16 melanoma cells; in words, listed as Sw",less effective at inhibiting the B16 growth (p<0.5)
same,increase in plaque forming cells (PFC),"splenocytes; 0.01 μg Sw 3 weeks over mice not receiving Sw, p=0.001",89%
same,PFC versus control group,"splenocytes; 0.1 μg Sw without tumor, in words",not as significantly different from the control group (p=0.04)
same,PFC versus controls,"splenocytes; 0.1 μg Sw, day 14, in words",not a significant difference between the controls and these treated mice (p=0.13)
same,antibody production after immunosuppressive factor,antibody formation; Sw 3.7-100 mg/kg i.p. 5 days,return to normal levels of antibody production
same,"PFC numbers, Sw alone",antibody formation,no changes in PFC numbers
same,stimulation of CTL,B16F10 cells,no stimulation of CTL
same,lymphoid IL-2R expression and IL-2 induced proliferation,IL-2R; LAK; following mitogenic stimulation,augmented lymphoid IL-2R expression and IL-2 induced proliferation
same,LAK induction,IL-2R; LAK; normally sub-optimal stimulation doses,augmented the LAK induction
same,α-mannosidase II,α-mannosidase II,inhibition of α-mannosidase II
